Experimental data reported in patent US20250122250A1, “AUXIN-DEGRON SYSTEM KIT AND USE THEREFOR” (Inter-University Research Institute Corporation Research …, priority 2021, published 2025).

What was measured:
nematodes = assay: number of progeny of L1 larvae grown in the presence of ligand; assay type: in vivo, C. elegans; conditions: 5 μM 5-Ph-IAA, L1 larvae expressing AID*::GFP with AtTIR1 (F79G)
Procedure: Next, in order to confirm that 5-Ph-IAA is safer than IAA against nematodes, L1 larvae expressing AID*::GFP were each grown with AtTIR1 or AtTIR1 (F79G) in the presence of 1 mM IAA or 5 μM 5-Ph-IAA.

AtTIR1 (F79G) [1] = biological target: T1, AtTIR1 (F79G) (Arabidopsis thaliana, UniProt Q570C0, D170E/F79G/M473L); assay: AID*::GFP reporter degradation in embryos expressing AtTIR1 (F79G)::mRuby; assay type: in vivo; design: expressed in transfected cells
Procedure: Rapid removal of the target in the embryos is useful for analyzing a role of a protein in embryogenesis. Initially, 5-Ph-IAA was used to test the efficacy of protein removal in embryos. An egg-planting embryo expressing AtTIR1 (F79G)::mRuby and AID*::GFP was placed in a droplet of an M9 buffer including 50 μM 5-Ph-IAA, and then the reporter intensity was monitored (see FIG. 4A).
An egg-planting embryo expressing AtTIR1 (F79G)::mRuby and AID*::GFP was placed in a droplet of an M9 buffer including 50 μM 5-Ph-IAA-AM, and then the reporter intensity was monitored (see FIG. 4D).

AtTIR1 (F79G) [2] = biological target: T1, AtTIR1 (F79G); assay: AID*::GFP reporter degradation in adult nematodes expressing AtTIR1 (F79G); assay type: in vivo; design: expressed in transfected cells; host or cells: transgenic C. elegans (CRISPR-Cas9 knock-in at the ttTi5605 locus; larvae, adults, embryos); conditions: 5 μM 5-Ph-IAA for 4 hours
Procedure: (§1) Furthermore, the efficacy of the AID2 system in adults was tested.

AtTIR1 (F79G) [3] = biological target: T1, AtTIR1 (F79G); assay type: in vivo; design: expressed in transfected cells; host or cells: transgenic C. elegans (CRISPR-Cas9 knock-in at the ttTi5605 locus; larvae, adults, embryos)
Procedure: (§2) Next, L1 larvae were grown on plates including ligands at different concentrations. The intensity of the AID*::GFP reporter of larvae (second generation) born from adults was monitored.
as §1

AtTIR1 = biological target: T2, AtTIR1 (Arabidopsis thaliana, UniProt Q570C0, D170E/M473L); assay: AID*::GFP reporter level in second generation larvae expressing AtTIR1, grown on ligand plates; assay type: in vivo; conditions: combined with AtTIR1, larvae treated for one generation; read-out: estimated DC50 value (ligand concentrations required for 50% degradation)
T2 construct: expressed in transfected cells; host or cells: transgenic C. elegans (larvae)
Procedure: as §2, §1

[4] = biological target: AID*::GFP (Arabidopsis thaliana)
[5] = biological target: AID*::GFP (Arabidopsis thaliana); remark: listed apart in the source
[6] = biological target: AID*::GFP (Arabidopsis thaliana); remark: listed apart in the source

T1 sequence (Q570C0 whole entry F79G/D170E/M473L): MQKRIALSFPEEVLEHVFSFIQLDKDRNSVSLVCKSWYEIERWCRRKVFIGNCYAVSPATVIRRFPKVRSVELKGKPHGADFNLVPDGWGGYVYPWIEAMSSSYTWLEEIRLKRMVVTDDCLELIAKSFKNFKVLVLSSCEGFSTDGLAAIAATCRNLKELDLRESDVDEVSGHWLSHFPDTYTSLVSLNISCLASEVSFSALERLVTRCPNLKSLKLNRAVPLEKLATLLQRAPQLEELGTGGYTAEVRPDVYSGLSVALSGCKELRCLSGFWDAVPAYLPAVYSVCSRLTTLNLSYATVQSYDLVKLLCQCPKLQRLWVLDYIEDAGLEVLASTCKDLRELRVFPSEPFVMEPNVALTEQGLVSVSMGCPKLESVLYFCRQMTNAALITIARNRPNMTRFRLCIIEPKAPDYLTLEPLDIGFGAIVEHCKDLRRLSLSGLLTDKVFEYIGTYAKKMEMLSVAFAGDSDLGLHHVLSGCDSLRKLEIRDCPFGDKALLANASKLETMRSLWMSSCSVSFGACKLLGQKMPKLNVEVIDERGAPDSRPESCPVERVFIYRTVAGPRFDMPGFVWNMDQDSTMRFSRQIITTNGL
T1 sequence (G5ECU1 whole entry, further chain): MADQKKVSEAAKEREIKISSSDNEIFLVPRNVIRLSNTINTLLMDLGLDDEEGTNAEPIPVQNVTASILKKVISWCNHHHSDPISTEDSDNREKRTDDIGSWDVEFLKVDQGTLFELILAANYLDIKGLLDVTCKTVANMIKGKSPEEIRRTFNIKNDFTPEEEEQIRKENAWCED
T1 sequence (P93830 71-114, further chain): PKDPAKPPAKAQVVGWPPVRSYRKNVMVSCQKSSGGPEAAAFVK
T2 sequence (G5ECU1 whole entry): as the sequence (G5ECU1 whole entry, further chain) above
T2 sequence (Q570C0 whole entry D170E/M473L): as the sequence (Q570C0 whole entry F79G/D170E/M473L) above, with G79F counted along it
T2 sequence (P93830 71-114, further chain): as the sequence (P93830 71-114, further chain) above

O=C(O)Cc1c[nH]c2ccc(-c3ccccc3)cc12 [5-Ph-IAA, 5-phenylindole-3-acetic acid]
number of progeny (nematodes): showed no difference | time at which degradation of the reporter reached the maximum (AtTIR1 (F79G) [1]; 50 μM 5-Ph-IAA, embryos): 15 to 30 min | embryos with rapid decrease of fluorescence intensity (AtTIR1 (F79G) [1]; 50 μM in M9 buffer, 18/23 embryos): 78% | embryos with rapid decrease of fluorescence intensity (AtTIR1 (F79G) [1]; 100 μM, 16/20 embryos): 80% | AID*::GFP reporter in adults (AtTIR1 (F79G) [2]): a loss of the reporter was observed | AID*::GFP reporter expression in second generation larvae (AtTIR1 (F79G) [3]; 5.0 μM 5-Ph-IAA, among different ligand concentrations): lowest reporter expression | ligand concentration required, times lower than that of the AID system (IAA with AtTIR1) (AtTIR1 (F79G) [3]; long-term treatment, AID2 system vs AID system): about 1,300 times | DC50 (AtTIR1 (F79G) [3]; read-out: estimated DC50 value (ligand concentrations required for 50% degradation), combined with AtTIR1 (F79G), larvae treated for one generation): 0.0045 µM

CC(=O)OCOC(=O)Cc1c[nH]c2ccc(-c3ccccc3)cc12 [5-Ph-IAA-AM, 5-phenylindole 3-acetic acid acetoxymethyl ester]
degradation of AID*::GFP reporter in embryos (AtTIR1 (F79G) [1]; 50 μM 5-Ph-IAA-AM in M9 buffer): rapid degradation in all embryos

O=C(O)Cc1c[nH]c2ccccc12 [IAA]
DC50 (AtTIR1): 59 µM

AtTIR1 (F79G)::mRuby
DC50 (ligand concentration required for 50% degradation) of 5-Ph-IAA, AID*::GFP reporter in larvae treated for one generation [4]: 0.0045 µM | half-life of the AID*::GFP reporter level in larvae treated with 5 µM 5-Ph-IAA [5]: 15.5 min

AtTIR1::mRuby
DC50 (ligand concentration required for 50% degradation) of IAA, AID*::GFP reporter in larvae treated for one generation [4]: 59 µM | half-life of the AID*::GFP reporter level in larvae treated with 1 mM IAA [5]: 16.8 min | intensity of AID*::GFP in larvae, no ligand added (basal degradation) [6]: 73%
